Series [1] in a line: Body weight loss (acute toxicity) in the WiDr tumor model. In kind it is in vivo, nude mice. As to conditions: intravenous 5 consecutive days, body weight relative to Day 1. From the text: (§1) In order to study solid tumor growth inhibitory activities of the compounds of the formula (I) in vivo, WiDr human colon cancer cells were implanted subcutaneously into the flanks of nude mice. […]. The animals were grouped so that the average of the volumes of the respective groups became uniform, when it reached about 100 mm^3. Control group was made up of 10 mice and 11107D-administering groups were made up of 5 mice. The derivatives were administered for the administering groups for 5 consecutive days by intravenous injection so as to be any of 0.625 mg, 1.25 mg, 2.5 mg, 5 mg and 10 mg/kg/day, and a vehicle was administered to the control group. The tumor volumes on Day 15 were measured, and relative tumor volume ratios (T/C %) were determined setting the tumor volume of the control group as 100%. The body weights on Day 1, Day 5, Day 8, Day 12 and Day 15 (or 16) were measured, and relative body weight variations were determined setting the body weight on Day 1 as 100%. The relative body weight ratios on the day where the body weight reached the minimum were defined as the minimum relative weight ratios and are shown in Table 3.

The next series relates to VEGF promoter. Nature of the series: VEGF transcription-suppressing activity (VEGF promoter-PLAP reporter, U251/1-8 cells, hypoxia). The series is classed as cell-based. As to conditions: Homo sapiens, U-251, 18 h, read-out: VEGF transcription-suppressing activities (IC50: nM). From the text: In order to prepare reporter system reflecting transcription from VEGF promoter, VEGF promoter sequence was cloned, and inserted in secretory alkaline phosphatase (PLAP) vector to construct reporter vector.
In order to obtain the promoter region of human VEGF, VEGF genomic DNA was cloned from phage library. PCR primers having the sequences described in Sequence Numbers 1 and 2 were designed based on VEGF cDNA (GenBank accession number: X62568) and a fragment having about 340 bp was obtained by carrying out PCR. Human genomic phage library (Human genomic library, Clontech Co.) was screened using this as a probe to obtain VEGF genomic DNA. The DNA was digested by EcoRI, and the resultant fragments were inserted in the EcoRI site of pUC18. Finally, pUC18-VEGFA containing about 5.4 kb of VEGF 5′ flanking region was obtained. The pUC18-VEGFA was digested by KpnI/NheI, VEGF promoter region of about 2.3 kb obtained was inserted in the multi cloning site KpnI/NheI of secretory alkaline phosphatase (PLAP) vector (Goto et al, Mol. Pharmacol., 49, 860-873, 1996), and thus, VEGF-PLAP vector was constructed.
The above-mentioned VEGF-PLAP vector was transfected in the U251 cell cultured in the DULBECCO-modified eagle medium (DMEM; manufactured by SIGMA Co., Ltd.) containing 10% fetal calf serum, and the cells were cultured in the presence of 1 mg/mL G418 (Merck Co.) to establish G418 resistant stable clone (U251/1-8 cell).
It was confirmed that U251/1-8 cell secreted PLAP under hypoxic condition (2% O2 incubator) in the same manner as in the report (Cell. Mol. Biol. Res. 40, 35-39, 1994) and was a reporter system reflecting the transcription from VEGF promoter. The screening of the compound suppressing VEGF production which was induced by hypoxic stimulation was carried out below using the clone.
In order to remove the influence of alkaline phosphates in serum, U251/1-8 cells were rinsed twice with the adequate amount of PBS (Phosphate buffered saline), diluted in the DMEM medium containing 10% of serum in which alkaline phosphates was inactivated by the treatment of 65° C. for 20 min., and dispensed in 96-well plates by 4×10^4 cells/180 μL.
After culturing at 37° C. overnight in a CO2 incubator (5% CO2), 20 μL of the above-mentioned incubation solution containing the test compound diluted with 3-fold succession was added, and then they were incubated in a hypoxic (2% […]) incubator for 18 hours. With respect to the PLAP activity in the culture supernatants, 10 μL of the supernatants was added to 50 μL of 0.28 M Na2CO3—NaHCO3 buffer solution (pH 10.0, 8.0 mM MgSO4), and finally 50 μL of alkaline phosphatase substrate (LUMISTEIN, Genomescience Co.) was added. After reacting for one hour, the alkaline phosphatase activity of the PLAP was measured by detecting the chemical luminescence by a micro plate reader (Perkin-Elmer Co.). The PLAP activity under normoxia was set as 0%, the PLAP activity of cell which was treated under hypoxia was set as 100%, and the concentration suppressing the PLAP activity by 50% was set as the IC50 value of PLAP. The IC50 values of 11107D derivatives shown in Examples were measured, and the IC50 values of representative 11107D derivatives are shown in Table 1.

For series [2], the system named is WiDr human colon cancer cells. Nature of the series: Solid tumor growth inhibitory activities, WiDr human colon tumor model in nude mice. In kind it is in vivo. As to conditions: Mus musculus, iv, 360 h, read-out: Growth inhibitory activities in the WiDr human solid tumor model (T/C %).
Excerpt: as §1

Series [3] deals with WiDr human colon cancer cells. Nature of the series: Growth inhibitory activities on WiDr human colon cancer cells (MTT). The series is classed as cell-based. Conditions: 72 h, three days incubation. The protocol: WiDr human colon cancer cells cultured in DULBECCO-modified eagle medium (DMEM; manufactured by SIGMA Co., Ltd.) containing 10% fetal calf serum, penicillin (100 unit/mL) and streptomycin (100 μg/mL) were dispensed in 96-well plates by 2×10^3 cells/well. After culturing overnight in a CO2 incubator, 20 μL of the above-mentioned incubation solution containing the test compound diluted with 3-fold succession was added, followed by incubation. After three days, 50 μL of 3.3 mg/mL MTT solution was added, followed by culturing for further one hour. Then, formazan formed by the reduction by the action of living cells was extracted with 100 μL of DMSO, the absorbance (A540/A660) was determined and was set as the index of the number of living cells.
The concentrations of the compounds of the formula (I) at which the growth of WiDr human colon cancer cells are inhibited 50% were determined.

A short description of series [4]: Stability in an aqueous solution (HPLC residual ratio). Conditions: for Peak area (mAU × sec) after 24 hours / The residual ratios (%): Britton-Robinson's buffer pH 7, 25° C., 24 hours; for Peak area (mAU × sec) initial: Britton-Robinson's buffer pH 7, before incubation.
Method: The compounds of the formula (I) were dissolved in DMSO in concentrations of 10 to 20 mM, and these were diluted about 500 folds with Britton-Robinson's buffer solution of pH 7. Each of the solutions as sample solutions was incubated at 25° C. for 24 hours.
The sample solutions were analyzed by high performance liquid chromatography before and after incubation, and the residual ratios of the tested substances in the sample solutions after incubation were determined from the peak areas of the obtained chromatograms.

The term IC50 denotes the concentration needed to halve the response being measured.

For `CCC(O)C(C)C1OC1CC(C)(O)/C=C/C=C(\C)C1OC(=O)CC(O)CCC(C)(O)C(OC(=O)N(C)CCN(C)C)/C=C/C1C` (centres unmarked) [Compound 6, (8E,12E,14E)-7-(N-(2-(N′,N′-Dimethylamino)ethyl)-N-methylcarbamoyloxy)-3,6,16,21-tetrahydroxy-6,10,12,16,20-pentamethyl-18,19-epoxytricosa-8,12,14-trien-11-olide], the “the minimum relative weight ratios” value in series [1] (Dose 1.25 mg/kg) turned out to be 0.81. Further, the values for the IC50 (with VEGF promoter; in series [3]) were 32 nM and 12.5 nM, respectively. In series [2], the response vs control in vivo at 1.25 mg/kg came to 35%.

Regarding `CCC(O)C(C)C1OC1CC(C)(O)/C=C/C=C(\C)C1OC(=O)CC(O)CCC(C)(OC)C(OC(=O)N2C[C@@H]3C[C@H]2CN3CC)/C=C/C1C` (stereo in doubt) [Compound 122, (8E,12E,14E)-7-(((1S,4S)-5-Ethyl-2,5-diazabicyclo[2.2.1]heptan-2-yl)carbonyl)oxy-3,16,21-trihydroxy-6-methoxy-6,10,12,16,20-pentamethyl-18,19-epoxytricosa-8,12,14-trien-11-olide], the IC50 in the series on VEGF promoter came to 4.4 nM. For the same molecule, in series [4], the “Peak area (mAU × sec) after 24 hours” value came out at 4620 mAU × sec, the “The residual ratios (%)” value is reported as 94.8% and the “Peak area (mAU × sec) initial” value stood at 4872 mAU × sec. In addition, inhibition in series [3] was half-maximal at 1.1 nM (IC50).

Turning to `CCCCN1CCN(C(=O)OC2/C=C/C(C)C(/C(C)=C/C=C/C(C)(O)CC3OC3C(C)C(O)CC)OC(=O)CC(O)CCC2(C)O)CC1` (centres unmarked) [Compound 16, (8E,12E,14E)-7-((4-Butylpiperazin-1-yl)carbonyl)oxy-3,6,16,21-tetrahydroxy-6,10,12,16,20-pentamethyl-18,19-epoxytricosa-8,12,14-trien-11-olide], the “the minimum relative weight ratios” value in series [1] (Dose 2.5 mg/kg) is 0.90. Moreover, the IC50 is 3.1 nM in the series on VEGF promoter and 2 nM in series [3]. Moreover, the response vs control in vivo at 2.5 mg/kg in series [2] came out at 28%.

As to `CCC(O)C(C)C1OC1CC(C)(O)/C=C/C=C(\C)C1OC(=O)CC(O)CCC(C)(OC(=O)N2CCCN(CC)CC2)C(OC(C)=O)/C=C/C1C` (centres unmarked) [Compound 136, (8E,12E,14E)-7-Acetoxy-6-((4-ethylhomopiperazin-1-yl)carbonyl)oxy-3,16,21-trihydroxy-6,10,12,16,20-pentamethyl-18,19-epoxytricosa-8,12,14-trien-11-olide], the IC50 in the series on VEGF promoter stood at 1.2 nM. In addition, in series [4], the “Peak area (mAU × sec) after 24 hours” value is 3579 mAU × sec, the “The residual ratios (%)” value came to 95.4% and the “Peak area (mAU × sec) initial” value came to 3750 mAU × sec. Moreover, the IC50 in series [3] turned out to be 0.8 nM.

Consider `CCC(O)C(C)C1OC1CC(C)(O)/C=C/C=C(\C)C1OC(=O)CC(O)CCC(C)(O)C(OC(=O)N2CCN(C)CC2)/C=C/C1C` (centres unmarked) [Compound 12, (8E,12E,14E)-3,6,16,21-Tetrahydroxy-6,10,12,16,20-pentamethyl-7-((4-methylpiperazin-1-yl)carbonyl)oxy-18,19-epoxytricosa-8,12,14-trien-11-olide], for which the “the minimum relative weight ratios” value in series [1] (Dose 2.5 mg/kg) is 0.85. Further, the IC50 in the series with VEGF promoter was determined as 10.2 nM. In series [2], the response vs control in vivo at 2.5 mg/kg amounted to 21%. Also, in series [4], the “Peak area (mAU × sec) after 24 hours” value is 5169 mAU × sec, the “The residual ratios (%)” value came to 94.9% and the “Peak area (mAU × sec) initial” value is given as 5450 mAU × sec.

Take `CCC(O)C(C)C1OC1CC(C)(O)/C=C/C=C(\C)C1OC(=O)CC(O)CCC(C)(O)C(OC(=O)N2CCN(C(C)C)CC2)/C=C/C1C` (centres unmarked) [Compound 44, (8E,12E,14E)-3,6,16,21-Tetrahydroxy-7-((4-isopropylpiperazin-1-yl)carbonyl)oxy-6,10,12,16,20-pentamethyl-18,19-epoxytricosa-8,12,14-trien-11-olide]: in series [1] (Dose 5.0 mg/kg), the “the minimum relative weight ratios” value is reported as 0.89. Also, the 50% inhibitory concentration (IC50) with VEGF promoter was 3.9 nM. Further, the response vs control in vivo at 5 mg/kg in series [2] is 19%. In addition, in series [4], the “Peak area (mAU × sec) after 24 hours” value is 3820 mAU × sec, the “The residual ratios (%)” value amounted to 94.8% and the “Peak area (mAU × sec) initial” value amounted to 4031 mAU × sec. The same molecule had an IC50 in series [3] of 2.1 nM.

As to `CCC(O)C(C)C1OC1CC(C)(O)/C=C/C=C(\C)C1OC(=O)CC(O)CCC(C)(O)C(OC(=O)N(C)C2CCN(C)CC2)/C=C/C1C` (centres unmarked) [Compound 15, (8E,12E,14E)-3,6,16,21-Tetrahydroxy-6,10,12,16,20-pentamethyl-7-(N-methyl-N-(1-methylpiperidin-4-yl)carbamoyloxy)-18,19-epoxytricosa-8,12,14-trien-11-olide], the “the minimum relative weight ratios” value in series [1] (Dose 2.5 mg/kg) is on record as 0.82. Moreover, the response vs control in vivo at 2.5 mg/kg in series [2] is 36%.

Consider `CCC(O)C(C)C1OC1CC(C)(O)/C=C/C=C(\C)C1OC(=O)CC(O)CCC(C)(O)C(OC(=O)N2CCN(CC)CC2)/C=C/C1C` (centres unmarked) [Compound 21, (8E,12E,14E)-7-((4-Ethylpiperazin-1-yl)carbonyl)oxy-3,6,16,21-tetrahydroxy-6,10,12,16,20-pentamethyl-18,19-epoxytricosa-8,12,14-trien-11-olide], for which, in series [1] (Dose 2.5 mg/kg), the “the minimum relative weight ratios” value came out at 0.80. The 50% inhibitory concentration (IC50) in the series on VEGF promoter is 6.1 nM; in series [3], 3.2 nM. The response vs control in vivo at 2.5 mg/kg in series [2] came to 28%.

As to `CCC(O)C(C)C1OC1CC(C)(O)/C=C/C=C(\C)C1OC(=O)CC(O)CCC(C)(O)C(OC(=O)N2CCN(C3CCCCC3)CC2)/C=C/C1C` (centres unmarked) [Compound 26, (8E,12E,14E)-7-((4-Cyclohexylpiperazin-1-yl)carbonyl)oxy-3,6,16,21-tetrahydroxy-6,10,12,16,20-pentamethyl-18,19-epoxytricosa-8,12,14-trien-11-olide], in series [1] (Dose 2.5 mg/kg), the “the minimum relative weight ratios” value is 0.93. Also, the concentration for half-maximal inhibition (IC50) with VEGF promoter amounted to 2.8 nM; in series [3], 1.6 nM. Besides, the response vs control in vivo at 2.5 mg/kg in series [2] is 42%.
